The values below come from patent US20140303546A1, “LASER ASSISTED DELIVERY OF FUNCTIONAL CELLS, PEPTIDES AND NUCLEOTIDES” (priority 2011, published 2014).

The test system of this assay is Methicillin resistant Staphylococcus aureus (MRSA) biofilms. The experiment in a line: MRSA biofilm deep partial thickness wound model. The format is in vivo. To be noted: 24 hours after treatment; for reduction of MRSA counts in wounds: porcine wounds. As for the experimental part: Rectangular wounds measuring (10 mm×7 mm×0.5 mm) were made on the paravertebral and thoracic area (porcine) with a specialized electrokeratome fitted with a 7 mm blade. Wounds were inoculated with 250 μL of a 10^6 CFU/ml suspension and covered individually with a polyurethane film dressing to allow for biofilm formation. After 24 hours, the dressings were removed and wounds were randomly assigned to one of the following treatment groups: 1) untreated control, 2) ErYag, 3) ErYag plus gentamycin or 3) gentamycin alone. After treatment the wounds were covered with a new polyurethane film dressing and after 24 hours wounds were recovered for MRSA counts using a well published scrub technique. Oxicillin resistance screening agar (ORSAB) was used to isolate MRSA from the wounds. All plates were incubated aerobically overnight (16-24 hours) at 37° C., after which the number of viable colonies will be counted.
Methicillin resistant Staphylococcus aureus (MRSA) biofilms were created using a deep partial thickness wound model (described above). Wounds were randomly assigned to one of the following treatment groups: 1) untreated control, 2) ErYag, 3) ErYag plus gentamycin or 3) gentamycin alone. Twenty four hours after treatment, MRSA was recovered. […] However in combination (Laser+gentamycin) were able to reduce MRSA counts by 1.72 Log CFU/ml.

The mark [1] stands for this setting: in combination with ErYag laser.

For gentamycin, the “reduction of MRSA counts in wounds” value reads like this: (gentamycin alone) 0.6 Log CFU/ml; under setting [1], 1.72 Log CFU/ml. Also, the “reduction in MRSA” value under setting [1] was determined as 98.09%.
